Counter-ions that a name gives are not always drawn.

The target of data set [1] is T1, human brain-derived dopamine D4 receptor (Homo sapiens, UniProt P21917).
T1 construct: expressed in transfected cells; host or cells: CHO (CHO-K1) or HEK293 cells
T1 sequence (P21917 1-419): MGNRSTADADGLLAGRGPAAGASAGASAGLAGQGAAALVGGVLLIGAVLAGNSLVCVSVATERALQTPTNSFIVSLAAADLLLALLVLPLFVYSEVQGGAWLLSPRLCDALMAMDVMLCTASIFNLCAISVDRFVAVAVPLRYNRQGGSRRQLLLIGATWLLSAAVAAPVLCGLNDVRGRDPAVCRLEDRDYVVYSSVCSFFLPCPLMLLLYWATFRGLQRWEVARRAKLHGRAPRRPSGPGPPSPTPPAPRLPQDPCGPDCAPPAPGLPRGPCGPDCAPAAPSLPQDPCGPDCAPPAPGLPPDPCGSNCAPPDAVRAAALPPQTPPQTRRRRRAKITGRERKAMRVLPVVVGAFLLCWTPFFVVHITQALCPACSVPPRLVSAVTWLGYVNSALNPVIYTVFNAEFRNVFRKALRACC
The data set is described as follows: Agonistic activity in G protein dependent pathway of dopamine D4 receptor (aequorin intracellular calcium luminescence, FDSS). It counts as cell-based. Particulars: for EC50: concentration required to achieve a 50% response of Emax, CHO-K1 or HEK293 cells transfected with D4 receptor; for Emax: read-out: Maximal activity on D4 receptor (%). In outline:
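CHO-K1 or HEK293 cells transfected with D4 receptor, cultured 24 h at 37 °C, preloaded with coelenterazine; aequorin luminescence recorded on FDSS after compound addition. Emax taken as maximal activity; EC50 as concentration giving 50% of Emax.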
In general terms: A change in cytosolic calcium serves as a functional read-out for many receptors and channels.

Data set [2] can be described thus: Brain penetration study in rat (Kp,uu,brain). It counts as in vivo. Particulars: brain and plasma (unbound); 7-week-old SD-type or WKY-type rat; subcutaneous or oral administration; plasma and brain collected 0.5, 1 or 2 hours after administration; LC-MS; read-out: Kp,uu,brain (Unbound brain-to-plasma drug concentration ratio). As for the experimental part:
In this study, the brain penetration of the present compounds can be evaluated. Specifically, a 7-week-old SD-type or WKY-type rat received the subcutaneous administration of a solution of the present compound in saline or the oral administration of a suspension of the present compound in methylcellulose. Plasma and brain were collected from the treated rat 0.5 hour, 1 hour or 2 hours after the administration, and then the concentrations of the present compound in the plasma and the brain were measured by a LC-MS method.
The protein binding ratios of the present compound to the plasma and the brain were measured by an equilibrium dialysis method.
The concentrations of the present compound in the plasma and the brain as well as the plasma and brain protein binding ratios are applied to the following formula, and thus Kp,uu,brain (Unbound brain-to-plasma drug concentration ratio) can be calculated.
Kp,uu,brain=(the concentration of the present compound in the brain×(100−the brain protein binding ratio (%))/100)/(the concentration of the present compound in the plasma×(100−the plasma protein binding ratio (%))/100)

By EC50 is commonly meant the concentration needed to bring the measured effect to its halfway point. For `Cc1ncc(CN2CCn3nc(-c4ccccn4)cc3C2)c(N)n1` [Example 22, 2-Methyl-5-{[2-(pyridin-2-yl)-6,7-dihydropyrazolo[1,5-a]pyrazin-5(4H)-yl]methyl}pyrimidine-4-amine], in data set [1], the concentration for a half-maximal effect (EC50) came out at 109 nM and the Emax is 62%. Moreover, in data set [2], the Kp uu was determined as 0.2.

Consider `Cc1cccnc1-c1cc2n(n1)CCN(Cc1ccc3c(n1)CCC3)C2` [Example 113], for which, in data set [1], the EC50 is 13 nM and the Emax was found to be 104%. For the same compound, the Kp uu in data set [2] amounted to 0.77.

Turning to `Cc1ncc(CN2CCn3nc(-c4ncccc4C)c(C)c3C2)cn1` [Example 116], in data set [1], the concentration for a half-maximal effect (EC50) was 131 nM and the Emax was found to be 67%. For the same compound, in data set [2], the Kp uu worked out at 1.42.

Consider `Cc1c(-c2ncccc2F)nn2c1CN(Cc1ccc(C(F)(F)F)cn1)CC2` [Example 128], for which, in data set [1], the EC50 stood at 36 nM and the Emax was 86%. The Kp uu in data set [2] amounted to 0.6.

In the case of `Fc1cccnc1-c1cc2n(n1)CCN(Cc1ccc3c(n1)CCC3)C2` [Example 129], in data set [1], the 50% effective concentration (EC50) was determined as 14 nM and the Emax is 91%. Besides, in data set [2], the Kp uu stood at 0.58.

With `Cc1cccnc1-c1cc2n(n1)CCN(Cc1nc3ccccc3[nH]1)C2` [Example 144], in data set [1], the EC50 came to 41 nM and the Emax was determined as 49%. The Kp uu in data set [2] worked out at 0.79.

With `Fc1cccnc1-c1cc2n(n1)CCN(Cc1ccc(C(F)(F)F)cn1)C2` [Example 163], in data set [1], the EC50 is 55 nM and the Emax is 57%.

Take `Cn1c(CN2CCn3nc(-c4ncccc4F)cc3C2)nc2ccccc21` [Example 164]: in data set [1], the EC50 worked out at 55 nM and the Emax came to 64%.

`Fc1cccnc1-c1cc2n(n1)CCN(Cc1c[nH]c3ccccc13)C2` [Example 165]: in data set [1], the EC50 came out at 22 nM and the Emax was determined as 65%.

As for `Cn1cc(CN2CCn3nc(-c4ncccc4F)cc3C2)c2ccccc21` [Example 166], in data set [1], the EC50 was found to be 44 nM and the Emax was 85%.

As to `Cn1nc(CN2CCn3nc(-c4ncccc4F)cc3C2)c2ccccc21` [Example 167], in data set [1], the concentration giving a half-maximal response (EC50) was 17 nM and the Emax stood at 69%.

For `Cn1nc2ccccc2c1CN1CCn2nc(-c3ncccc3F)cc2C1` [Example 168], in data set [1], the EC50 was determined as 82 nM and the Emax turned out to be 65%.

For `Fc1ccc(CN2CCn3nc(-c4ncccc4F)cc3C2)cn1` [Example 169], in data set [1], the EC50 was 51 nM and the Emax came out at 80%.

With `Cc1ncc(CN2CCn3nc(-c4ncccc4C)cc3C2)cn1` [Example 170], in data set [1], the EC50 was determined as 152 nM and the Emax was found to be 48%.

As for `Cc1ncc(CN2CCn3nc(-c4ncccc4F)cc3C2)cn1` [Example 171], in data set [1], the EC50 is 252 nM and the Emax was determined as 48%.

In the case of `Cc1ncc(CN2CCn3nc(-c4ccccn4)c(Cl)c3C2)c(N)n1` [Example 172, 5-{[3-Chloro-2-(pyridin-2-yl)-6,7-dihydropyrazolo[1,5-a]pyrazin-5 (4H)-yl]methyl}-2-methylpyrimidine-4-amine], in data set [1], the EC50 turned out to be 90 nM and the Emax came out at 53%.

Regarding `Clc1c(-c2ccccn2)nn2c1CN(Cc1ccccc1)CC2` [Example 173, 5-Benzyl-3-chloro-2-(pyridin-2-yl)-4,5,6,7-tetrahydropyrazolo[1,5-a]pyrazine], in data set [1], the EC50 came out at 12 nM and the Emax is 63%.

Turning to `FC(F)(F)c1c(-c2ccccn2)nn2c1CN(Cc1ccccc1)CC2` [Example 175], in data set [1], the EC50 was determined as 92 nM and the Emax was determined as 50%.

Turning to `Cc1ccc(CN2CCn3nc(-c4ncccn4)cc3C2)cc1` [Example 176], in data set [1], the EC50 was 41 nM and the Emax came out at 39%.

Take `Cc1cccnc1-c1cc2n(n1)CCN(Cc1ccc(OC(F)(F)F)c(F)c1)C2` [Example 177, 5-[3-Fluoro-4-(trifluoromethoxy)benzyl]-2-(3-methylpyridin-2-yl)-4,5,6,7-tetrahydropyrazolo[1,5-a]pyrazine monohydrochloride]: in data set [1], the EC50 stood at 141 nM and the Emax is 39%.

For the compound `Cc1cccnc1-c1cc2n(n1)CCN(Cc1ccc(Cl)c(C)n1)C2` [Example 178], in data set [1], the EC50 was determined as 32 nM and the Emax turned out to be 50%.

For the compound `Cc1c(-c2ncccc2F)nn2c1CN(Cc1ccc(C(F)F)cn1)CC2` [Example 179], in data set [1], the EC50 is 64 nM and the Emax was 38%.

As for `Cc1cccnc1-c1cc2n(n1)CCN(Cc1ccc(CF)c(C)n1)C2` [Example 180], in data set [1], the EC50 is 38 nM and the Emax was determined as 63%.

Turning to `Cc1cccnc1-c1cc2n(n1)CCN(Cc1cc3c(cn1)CCC3)C2` [Example 181], in data set [1], the EC50 was determined as 43 nM and the Emax amounted to 43%.

With `Cc1cccnc1-c1cc2n(n1)CCN(Cc1cc3c(cn1)COC3)C2` [Example 182], in data set [1], the EC50 worked out at 79 nM and the Emax was found to be 47%.

For the compound `Cc1cccnc1-c1cc2n(n1)CCN(Cc1ncc(Br)cc1F)C2` [Example 183], in data set [1], the EC50 is 108 nM and the Emax was found to be 49%.

In the case of `Cc1cnc(CN2CCn3nc(-c4ncccc4C)cc3C2)c(F)c1` [Example 184], in data set [1], the EC50 came out at 116 nM and the Emax amounted to 51%.

For the compound `Cc1cccnc1-c1cc2n(n1)CCN(Cc1cc3c(cn1)OCC3)C2` [Example 185], in data set [1], the EC50 is 82 nM and the Emax turned out to be 51%.

For `Cc1cccnc1-c1cc2n(n1)CCN(Cc1cnc3c(c1)CCCC3)C2` [Example 186], in data set [1], the EC50 was 51 nM and the Emax came to 44%.

For the compound `Cc1cc(CN2CCn3nc(-c4ncccc4C)cc3C2)cnc1Cl` [Example 187], in data set [1], the EC50 was 32 nM and the Emax amounted to 66%.

With `Cc1cc(CN2CCn3nc(-c4ncccc4C)cc3C2)cnc1C` [Example 188], in data set [1], the EC50 worked out at 44 nM and the Emax came to 63%.

As to `Cc1cccnc1-c1cc2n(n1)CCN(Cc1cnc(C)c(Cl)c1)C2` [Example 189, 5-[(5-Chloro-6-methylpyridin-3-yl)methyl]-2-(3-methylpyridin-2-yl)-4,5,6,7-tetrahydropyrazolo[1,5-a]pyrazine], in data set [1], the EC50 is 57 nM and the Emax was determined as 49%.

For `Cc1ncc(CN2CCn3nc(-c4ncccc4C)cc3C2)c(C)n1` [Example 190, 5-[(2,4-Dimethylpyrimidin-5-yl)methyl]-2-(3-methylpyridin-2-yl)-4,5,6,7-tetrahydropyrazolo[1,5-a]pyrazine], in data set [1], the EC50 was 60 nM and the Emax was 61%.

Take `Cc1ncc(CN2CCn3nc(-c4ncccc4F)cc3C2)c(C)n1` [Example 191]: in data set [1], the EC50 was found to be 43 nM and the Emax was 76%.

As to `Cc1cccnc1-c1cc2n(n1)CCN(Cc1cnc(C(F)(F)F)nc1)C2` [Example 195], in data set [1], the EC50 came out at 84 nM and the Emax was 35%.

In the case of `Cc1cccnc1-c1cc2n(n1)CCN(Cc1cnc(C(F)F)nc1)C2` [Example 196], in data set [1], the EC50 amounted to 55 nM and the Emax came to 29%.

For `Fc1cccnc1-c1cc2n(n1)CCN(Cc1cnc(C(F)(F)F)nc1)C2` [Example 198], in data set [1], the EC50 was determined as 45 nM and the Emax amounted to 33%.

For the compound `Fc1cccnc1-c1cc2n(n1)CCN(Cc1cnc(C(F)F)nc1)C2` [Example 199], in data set [1], the EC50 stood at 101 nM and the Emax was determined as 36%.

Take `Cc1cccnc1-c1cc2n(n1)CCN(Cc1cnc(C(C)C)nc1)C2` [Example 203]: in data set [1], the EC50 was 37 nM and the Emax is 54%.

For `CC(C)c1ncc(CN2CCn3nc(-c4ncccc4F)cc3C2)cn1` [Example 204], in data set [1], the EC50 came out at 44 nM and the Emax came to 50%.

For the origin of these results see patent publication US20160318933A1, “FUSED PYRAZOLE DERIVATIVE” (SUMITOMO DAINIPPON PHARMA CO., LTD., priority 2013, published 2016).
